The values below come from ChEMBL document CHEMBL4190316, “Synthesis and biological evaluation of 4-biphenylamino-5-halo-2(5H)-furanones as potential anticancer agents” (Eur J Med Chem, 2017).

In data set [1] the test system is MCF7. The experiment in a line: Induction of apoptosis in human MCF7 cells assessed as necrotic cells at 10 uM after 24 hrs by Annexin-V/PI staining based flow cytometry (reference value: 4.03%). The format is functional. A general note: In flow cytometry, cells or beads pass a laser one at a time.
The next data set has as its system CNE. The experiment in a line: Cytotoxicity against human CNE1 cells assessed as reduction in cell viability after 72 hrs by MTT assay. The format is functional, cell-based.
Data set [2] has as its system MCF7. Put plainly: Cell cycle arrest in human MCF7 cells assessed as accumulation at G2/M phase at 10 uM after 24 hrs by propidium iodide staining based flow cytometry (reference value: 6.91%). The class given is functional.
Data set [3] has as its system MCF7. The experiment in a line: Cell cycle arrest in human MCF7 cells assessed as accumulation at G1 phase at 20 uM after 24 hrs by propidium iodide staining based flow cytometry (reference value: 69.92%). The class given is functional.
In data set [4] the test system is MCF7. The experiment in a line: Induction of apoptosis in human MCF7 cells assessed as early apoptotic cells at 10 uM after 24 hrs by Annexin-V/PI staining based flow cytometry (reference value: 0.13%). The format is functional.
In data set [5] the test system is MCF7. Put plainly: Induction of apoptosis in human MCF7 cells assessed as late apoptotic cells at 40 uM after 24 hrs by Annexin-V/PI staining based flow cytometry (reference value: 0.96%). The class given is functional.
Data set [6] is described as follows: Octanol-water partition coefficient, log P of the compound at 10 mM after 24 hrs by UV-vis spectroscopic method. The format is physicochemical.
Data set [7] deals with MCF7. The experiment in a line: Cell cycle arrest in human MCF7 cells assessed as accumulation at S phase at 40 uM after 24 hrs by propidium iodide staining based flow cytometry (reference value: 23.16%). The class given is functional.
Data set [8] has as its system Quadruplex DNA. The experiment in a line: Binding affinity to c-Myc G-quadruplex DNA (unknown origin) assessed as hypochromism at 20 uM incubated for 3 mins by electronic absorption spectra method. The class given is nucleic-acid assay.
In data set [9] the test system is MCF7. The experiment in a line: Induction of apoptosis in human MCF7 cells assessed as live cells at 10 uM after 72 hrs by Annexin-V/PI staining based flow cytometry (reference value: 97.7%). The format is functional.
Data set [10] relates to MCF7. The experiment in a line: Cell cycle arrest in human MCF7 cells assessed as accumulation at G1 phase at 40 uM after 72 hrs by propidium iodide staining based flow cytometry (reference value: 66.42%). The class given is functional.
For another data set, the system named is MDA-MB-231. The experiment in a line: Cytotoxicity against human MDA-MB-231 cells assessed as reduction in cell viability after 72 hrs by MTT assay. The format is functional, cell-based. Conditions: MDA-MB-231, 72 h. On the technique in general: Formazan colour is commonly taken as a measure of viable cells.
Data set [11] concerns MCF7. Put plainly: Induction of apoptosis in human MCF7 cells assessed as live cells at 10 uM after 24 hrs by Annexin-V/PI staining based flow cytometry (reference value: 94.88%). The format is functional.
Data set [12] concerns MCF7. Put plainly: Induction of apoptosis in human MCF7 cells assessed as early apoptotic cells at 40 uM after 72 hrs by Annexin-V/PI staining based flow cytometry (reference value: 0.28%). The class given is functional.
The subject of data set [13] is Quadruplex DNA. Put plainly: Effect on conformation of c-Myc G-quadruplex DNA (unknown origin) at 1 mM measured every 3 mins by CD spectroscopic analysis. The format is nucleic-acid assay.
Data set [14] relates to MCF7. The experiment in a line: Cell cycle arrest in human MCF7 cells assessed as accumulation at G2/M phase at 20 uM after 72 hrs by propidium iodide staining based flow cytometry (reference value: 17.99%). The class given is functional.
Data set [15] has as its system MCF7. The experiment in a line: Cell cycle arrest in human MCF7 cells assessed as accumulation at S phase at 10 uM after 24 hrs by propidium iodide staining based flow cytometry (reference value: 23.16%). The format is functional.
Data set [16] relates to MCF7. Put plainly: Induction of apoptosis in human MCF7 cells assessed as late apoptotic cells at 20 uM after 72 hrs by Annexin-V/PI staining based flow cytometry (reference value: 0.60%). The format is functional.
Data set [17] concerns MCF7. The experiment in a line: Induction of apoptosis in human MCF7 cells assessed as early apoptotic cells at 20 uM after 72 hrs by Annexin-V/PI staining based flow cytometry (reference value: 0.28%). The format is functional.

Active and inactive are the calls of the source. The rule behind the calls is not given here.

In general, IC50 refers to the point on the concentration scale where inhibition reaches its midpoint. As usually defined, the logP is the decadic logarithm of the partition coefficient of the neutral form, usually between octanol and water. Higher therefore signals higher lipophilicity. Regarding `CC(=O)OC1OC(=O)C(Br)=C1Nc1ccc(-c2ccc(N)cc2)cc1` (centres undefined), the Activity in the data set with MCF7 [1] is listed as 2.82%; in the data set on MCF7 [2] it was 9.61%; with MCF7 [3] it was 68.3%; in the data set on MCF7 [4], 0.16%; with MCF7 [5], 0.5%; with MCF7 [7], 26.45%. Besides, the Activity was 28% with Quadruplex DNA [8]; 95.8% with MCF7 [9]; 44.37% with MCF7 [10]; 96.89% in the data set on MCF7 [11]; 0.47% in the data set with MCF7 [12]; 23.44% in the data set on MCF7 [14]. The Activity in the data set on MCF7 [15] came to 23.95%; in the data set with MCF7 [16] it was 0.67%; with MCF7 [17], 0.55%. Also, the IC50 in the data set on CNE is 49.4 µM; in the data set on MDA-MB-231, 33.7 µM. This compound also came in with a logP at 24 h, 10000 µM in data set [6] of 1.76. Also, in the data set on Quadruplex DNA [13], the outcome was inactive.
